Data reported in patent US6747027B1, “Thiol sulfonamide metalloprotease inhibitors” (Pharmacia Corporation, priority 1996, dated 2004).
Counter-ions that a name gives are not always drawn.

Experiments:
[1] = biological target: T1, recombinant human MMP-13 (Homo sapiens, UniProt P45452); assay: In vitro metalloprotease inhibition, fluorogenic peptide assay (MMP-13); format: biochemical; conditions: recombinant human MMP-13, APMA activated; fluorogenic MCA peptide substrate 4 uM; pH 7.5, room temperature
T1 construct: made in house
Description: (§1) Certain of the compounds prepared in the manner described in Examples 1 to 223 were tested for activity by an in vitro assay. Following the procedures of Knight et al., FEBS Lett. 296(3):263 (1992). Briefly, 4-aminophenylmercuric acetate (APMA) or trypsin activated MMPs were incubated with various concentrations of the inhibitor compound at room temperature for 5 minutes (0.02% 2-mercapto-ethanol added to buffer for thiol compounds with 5 minutes or overnight incubation). More specifically, recombinant human MMP-13 and MMP-1 enzymes were prepared in laboratories of the inventors' employer. MMP-13 was expressed in baculovirus as a proenzyme, and purified first over a heparin agarose column and then over a chelating zinc chloride column. The proenzyme was activated by APMA for use in the assay. MMP-1 expressed in transfected HT-1080 was provided by Dr. Howard Welgus of Washington University, St. Louis, Mo. The enzyme was also activated using APMA and was then purified over a hydroxamic acid column.
(§2) The enzyme substrate is a methoxycoumarin-containing polypeptide having the following sequence:
(§3) MCA-ProLeuGlyLeuDpaAlaArgNH^2, wherein MCA is methoxycoumarin and Dpa is 3-(2,4-dinitrophenyl)-L-2,3-diaminopropionyl alanine. This substrate is commercially available from Baychem as product M-1895.
(§4) The buffer used for assays contained 100 mM Tris-HCl, 100 mM NaCl, 10 mM CaCl2 and 0.05 percent polyethyleneglycol(23) lauryl ether at a pH value of 7.5. Assays were carried out at room temperature, and dimethyl sulfoxide (DMSO) at a final concentration of 1 percent was used to dissolve inhibitor compound.
(§5) The assayed inhibitor compound in DMSO/buffer solution was compared to an equal amount of DMSO/buffer with no inhibitor as control using microfluor™ white plates (Dynatech). The inhibitor or control solution was maintained in the plate for 10 minutes and the substrate was added to provide a final concentration of 4 uM.
(§6) In the absence of inhibitor activity, a fluorogenic peptide is cleaved at the gly-leu peptide bond, separating the highly fluorogenic peptide from a 2.4-dinitrophenyl quencher, resulting in an increase of fluorescence intensity (excitation at 328 nm/emmision at 415 nm). Inhibition was measured as a reduction in fluorescent intensity as a function of inhibitor concentration, using a Perkin Elmer L550 plate reader. The IC50 values were calculated from those values. The results are set forth in the Inhibition Table below, reported in terms of IC50 to three significant figures.

[2] = biological target: T2, recombinant human MMP-1 (Homo sapiens, UniProt P03956); assay: In vitro metalloprotease inhibition, fluorogenic peptide assay (MMP-1); format: biochemical; conditions: recombinant human MMP-1, APMA activated; fluorogenic MCA peptide substrate 4 uM; pH 7.5, room temperature
T2 construct: made in house; host or cells: transfected HT-1080 cells (provided by Dr. Howard Welgus, Washington University)
T2 sequence (P03956 100-469): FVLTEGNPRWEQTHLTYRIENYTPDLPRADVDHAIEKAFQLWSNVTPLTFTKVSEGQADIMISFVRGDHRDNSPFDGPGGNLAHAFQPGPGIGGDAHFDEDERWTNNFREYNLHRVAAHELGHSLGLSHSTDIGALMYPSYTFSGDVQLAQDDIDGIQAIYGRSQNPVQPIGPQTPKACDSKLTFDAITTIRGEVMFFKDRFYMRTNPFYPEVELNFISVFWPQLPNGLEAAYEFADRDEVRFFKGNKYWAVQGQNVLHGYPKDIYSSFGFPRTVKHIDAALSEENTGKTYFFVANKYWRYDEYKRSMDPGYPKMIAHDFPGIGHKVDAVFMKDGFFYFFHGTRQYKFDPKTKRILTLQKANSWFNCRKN
Description: as §1, §2, §3, §4, §5, §6

## C[C@H](CS)NS(=O)(=O)c1ccc(OC(F)(F)F)cc1 [Example 75, N-(2-mercapto-1R-methylethyl)-4-(trifluoromethoxy)-benzenesulfonamide]
[1]
  IC50: 1000 nM
[2]
  IC50: 5000 nM

## C[C@H](CS)NS(=O)(=O)c1ccc(C#N)cc1 [Example 76, N-(2-mercapto-1R-methylethyl)-4-cyanobenzenesulfonamide]
[1]
  IC50: 8800 nM
[2]
  IC50: 3500 nM

## C[C@H](CS)NS(=O)(=O)c1ccccc1 [Example 82, N-(2-mercapto-1R-methylethyl)-benzenesulfonamide]
[1]
  IC50: 1200 nM
[2]
  IC50: > 10000 nM

## CC(=O)Nc1ccc(S(=O)(=O)N[C@H](C)CS)cc1 [Example 84, N-(2-mercapto-1R-methylethyl)-4-N-acetylsulfanilamide]
[1]
  IC50: > 10000 nM
[2]
  IC50: > 10000 nM

## C[C@H](CS)NS(=O)(=O)c1ccc(N=Nc2ccccc2)cc1 [Example 89, N-(2-mercapto-1R-methylethyl)-4-phenylazobenzenesulfonamide]
[1]
  IC50: 90 nM
[2]
  IC50: > 10000 nM

## C[C@H](CS)N(CCN1CCCCC1)S(=O)(=O)c1ccc(Sc2ccccc2)cc1 [Example 92D, N-(2-Mercapto-1R-methylethyl)-N-[2-(1-piperidino)ethyl]-4-(thiophenyl)benzenesulfonamide Hydrochloride]
[1]
  IC50: 0.7 nM
[2]
  IC50: 6000 nM

## NC(=O)[C@H](CS)NS(=O)(=O)c1ccc(I)cc1 [Example 95, N-(4-Iodophenyl)sulfonyl-L-cysteine-NH2]
[1]
  IC50: 20 nM
[2]
  IC50: 800 nM

## CCCCCc1ccc(S(=O)(=O)N[C@@H](CS)C(N)=O)cc1 [Example 96, N-[4-(n-Pentyl)-phenyl]sulfonyl-L-cysteine-NH2]
[1]
  IC50: 17 nM
[2]
  IC50: > 10000 nM

## CCCCN([C@H](C)CS)S(=O)(=O)c1ccc(OC)cc1 [Example 99]
[1]
  IC50: 31.3 nM
[2]
  IC50: 900 nM

## COc1ccc(S(=O)(=O)N[C@H](C)CS)cc1OC [Example 100]
[1]
  IC50: > 10000 nM
[2]
  IC50: > 10000 nM

## C[C@H](CS)NS(=O)(=O)c1ccc(Sc2ccccc2)cc1 [Example 101]
[1]
  IC50: 30 nM
[2]
  IC50: > 10000 nM

## C[C@H](CS)N(CC(=O)O)S(=O)(=O)c1ccc(Sc2ccccc2)cc1 [Example 103]
[1]
  IC50: 17 nM
[2]
  IC50: > 10000 nM

## CCCCOc1ccc(S(=O)(=O)N(CCN2CCOCC2)[C@H](C)CS)cc1 [Example 107]
[1]
  IC50: 2.7 nM
[2]
  IC50: 4000 nM

## CCCCOc1ccc(S(=O)(=O)NC(CO)CS)cc1 (stereo not shown) [Example 110]
[1]
  IC50: 1600 nM
[2]
  IC50: > 10000 nM

## COc1ccc(S(=O)(=O)N(Cc2ncc[nH]2)[C@H](C)CS)cc1 [Example 111]
[1]
  IC50: 40 nM
[2]
  IC50: 2000 nM

## COc1ccc(S(=O)(=O)N(Cc2ccsc2)[C@H](C)CS)cc1 [Example 112]
[1]
  IC50: 150 nM
[2]
  IC50: 4000 nM

## C[C@H](CS)N(CCN1CCOCC1)S(=O)(=O)c1ccc(Oc2ccccc2)cc1 [Example 113]
[1]
  IC50: 0.25 nM
[2]
  IC50: 125 nM

## COCCOc1ccc(S(=O)(=O)N(CCN2CCOCC2)[C@H](C)CS)cc1 [Example 114]
[1]
  IC50: 45 nM
[2]
  IC50: > 10000 nM

## CC(=O)SC[C@@H](C)N(CCN1CCOCC1)S(=O)(=O)c1ccc(Oc2ccc(CCC(=O)OC(C)(C)C)cc2)cc1 [Example 115]
[1]
  IC50: 220 nM
[2]
  IC50: > 10000 nM

## C[C@H](CS)N(CCN1CCOCC1)S(=O)(=O)c1ccc(Oc2ccc(CCC(=O)O)cc2)cc1 [Example 117]
[1]
  IC50: 15 nM
[2]
  IC50: 8000 nM

## C[C@H](CS)N(CCN1CCOCC1)S(=O)(=O)c1ccc(Oc2ccc(CCC(=O)O)cc2)cc1 [Example 118]
[1]
  IC50: 14 nM
[2]
  IC50: 7000 nM

## Cc1ccccc1-c1ccc(S(=O)(=O)N(C)[C@H](C)CS)cc1 [Example 122]
[1]
  IC50: 4250 nM
[2]
  IC50: > 10000 nM

## COc1cccc(-c2ccc(S(=O)(=O)N(C)[C@H](C)CS)cc2)c1 [Example 123]
[1]
  IC50: 115 nM
[2]
  IC50: > 10000 nM

## COc1ccc(-c2ccc(S(=O)(=O)N(C)[C@H](C)CS)cc2)cc1 [Example 124]
[1]
  IC50: < 0.5 nM
[2]
  IC50: 2100 nM

## C[C@H](CS)N(C)S(=O)(=O)c1ccc(-c2cccc(C(F)(F)F)c2)cc1 [Example 125]
[1]
  IC50: 770 nM
[2]
  IC50: > 10000 nM

## CC(C)Oc1ccc(-c2ccc(S(=O)(=O)N(CCN3CCOCC3)[C@@H](CS)C(N)=O)cc2)cc1 [Example 126]
[1]
  IC50: 3.5 nM
[2]
  IC50: > 100 nM

## CCCCCc1ccc(S(=O)(=O)N(CCN2CCOCC2)[C@@H](CS)C(N)=O)cc1 [Example 128]
[1]
  IC50: 1.1 nM
[2]
  IC50: 5000 nM

## COc1ccc(S(=O)(=O)N(C)CCc2ccccc2S)cc1 [Example 130]
[1]
  IC50: 3300 nM
[2]
  IC50: > 10000 nM

## COc1ccc(-c2ccc(S(=O)(=O)N(CCN3CCOCC3)[C@@H](CS)C(N)=O)cc2)cc1 [Example 131]
[1]
  IC50: < 0.1 nM
[2]
  IC50: 70 nM

## C[C@H](CSC(=O)c1cccs1)N(CCN1CCOCC1)S(=O)(=O)c1ccc(Sc2ccccc2)cc1 [Example 132]
[1]
  IC50: 47 nM
[2]
  IC50: > 10000 nM

## C[C@H](CSC(=O)C(C)(C)C)N(CCN1CCOCC1)S(=O)(=O)c1ccc(Sc2ccccc2)cc1 [Example 133]
[1]
  IC50: 4200 nM
[2]
  IC50: > 10000 nM

## C[C@H](CS)NS(=O)(=O)c1ccc(S(C)(=O)=O)cc1 [Example 147]
[1]
  IC50: > 10000 nM
[2]
  IC50: < 10000 nM

## C[C@H](CS)NS(=O)(=O)c1ccc(Cc2ncc(C(F)(F)F)cc2Cl)s1 [Example 155]
[1]
  IC50: > 10000 nM
[2]
  IC50: > 10000 nM

## C[C@H](CS)N(C)S(=O)(=O)c1ccc(-c2ccccn2)s1 [Example 156]
[1]
  IC50: 7.3 nM
[2]
  IC50: 1070 nM

## CCCCOc1ccc(S(=O)(=O)N[C@@H](CS)C(=O)NC(C)C)cc1 [Example 166]
[1]
  IC50: 880 nM
[2]
  IC50: > 10000 nM

## CCCCOc1ccc(S(=O)(=O)N[C@@H](CS)C(=O)NC)cc1 [Example 171]
[1]
  IC50: 30 nM
[2]
  IC50: > 10000 nM

## CCCCOc1ccc(S(=O)(=O)N[C@@H](CS)C(=O)NCCN2CCOCC2)cc1 [Example 172]
[1]
  IC50: 250 nM
[2]
  IC50: > 10000 nM

## CCCCOc1ccc(S(=O)(=O)N(Cc2ccncc2)[C@@H](CS)C(N)=O)cc1 [Example 175]
[1]
  IC50: 0.7 nM
[2]
  IC50: 400 nM

## CCCCOc1ccc(S(=O)(=O)N(CCN2CCOCC2)[C@@H](CS)C(=O)NC)cc1 [Example 176]
[1]
  IC50: 2.5 nM
[2]
  IC50: 2900 nM

## CCCCOc1ccc(S(=O)(=O)N[C@@H](CS)C(=O)N(C)C)cc1 [Example 178]
[1]
  IC50: 300 nM
[2]
  IC50: > 10000 nM

## CCCCOc1ccc(S(=O)(=O)N[C@@H](CS)C(=O)NCC(=O)O)cc1 [Example 179]
[1]
  IC50: 23.5 nM
[2]
  IC50: 2000 nM

## CCCCOc1ccc(S(=O)(=O)N[C@@H](CS)C(=O)N[C@@H](Cc2ccccc2)C(=O)NC)cc1 [Example 180]
[1]
  IC50: 700 nM
[2]
  IC50: > 10000 nM

## CCCCOc1ccc(S(=O)(=O)N[C@@H](CS)C(=O)O)cc1 [Example 181]
[1]
  IC50: 3000 nM
[2]
  IC50: > 10000 nM

## CCCCOc1ccc(S(=O)(=O)N[C@@H](CS)C(=O)N[C@@H](Cc2ccccc2)C(N)=O)cc1 [Example 186]
[1]
  IC50: 1100 nM
[2]
  IC50: > 10000 nM

## C[C@H](CS)NS(=O)(=O)c1ccc([N+](=O)[O-])cc1 [Example 192]
[1]
  IC50: > 10000 nM
[2]
  IC50: > 10000 nM

## CCC(C)(C)c1ccc(S(=O)(=O)N[C@H](C)CS)cc1 [Example 193]
[1]
  IC50: > 10000 nM
[2]
  IC50: > 10000 nM

## CC(=O)Nc1ccc(S(=O)(=O)N[C@@H](CS)C(N)=O)cc1 [Example 199]
[1]
  IC50: 350 nM
[2]
  IC50: > 10000 nM

## CCCCOc1ccc(S(=O)(=O)N[C@@H](CS)C(N)=O)cc1 [Example 201]
[1]
  IC50: 3.3 nM
[2]
  IC50: 7000 nM

## CC(=O)Nc1ccc(S(=O)(=O)N(C)[C@@H](CS)C(N)=O)cc1 [Example 203]
[1]
  IC50: 170 nM
[2]
  IC50: > 10000 nM

## CCCCOc1ccc(S(=O)(=O)N(CCC(C)C)[C@@H](CS)C(N)=O)cc1 [Example 208]
[1]
  IC50: 190 nM
[2]
  IC50: > 10000 nM
